Key:
Rattus norvegicus [1] = test: Antiallodynic effect investigated in chronic sciatic nerve constriction injury rats after 1 hr of 60 mg/kg i.p. administration and value reported as paw withdrawal threshold; format: functional; conditions: route intraperitoneal
Rattus norvegicus [2] = test: Antiallodynic effect investigated in chronic sciatic nerve constriction injury rats before 1 hr of 60 mg/kg i.p. administration and value reported as paw withdrawal threshold; format: functional; conditions: route intraperitoneal

SMILES | PWT (Rattus norvegicus [1]) [g] | PWT (Rattus norvegicus [2]) [g] | PWT (Rattus norvegicus [1]; 60 mg/kg) [g] | PWT (Rattus norvegicus [2]; 60 mg/kg) [g]
CC(C)C[C@@H](CN)CC(=O)OCCCOC(=O)CC1(CN)CCCCC1.Cl.Cl | 7.8 | 3.6 | – | –
NCC1(CC(=O)O)CCCCC1 [GABAPENTIN] | 13.5 | 2.23 | – | –
COC(=O)C[C@@H](CN)CC(C)C.Cl | 6.8 | 5.2 | – | –
Cl.Cl.NCC1(CC(=O)OCCCCOC(=O)CC2(CN)CCCCC2)CCCCC1 | 5.6 | 4 | – | –
COc1ccc(C(CN(C)C)C2(OC(=O)CCC(=O)NC34CC5CC(C)(CC(C)(C5)C3)C4)CCCCC2)cc1.Cl.Cl (configuration not stated) | 5.6 | 3.36 | – | –
COC(=O)CC1(CN)CCCCC1.Cl | 22.8 | 6.4 | – | –
CC(C)C[C@@H](CN)CC(=O)OCCCCCOC(=O)CC1(CN)CCCCC1.Cl.Cl (stereo in doubt; 2003327) | – | – | 20.67 | 3.33
CC(C)C[C@H](CN)CC(=O)OCCOC(=O)C[C@H](CN)CC(C)C.Cl.Cl | 7.9 | 2.9 | – | –
CC(C)C[C@H](CN)CC(=O)OCCCOC(=O)C[C@H](CN)CC(C)C.Cl.Cl | 10.33 | 6 | – | –
CC(C)C[C@H](CNC(=O)CCC(=O)NC[C@@H](CC(=O)O)CC(C)C)CC(=O)O | 6 | 4 | – | –
CC(C)C[C@H](CN)CC(=O)OCCCCOC(=O)C[C@H](CN)CC(C)C.Cl.Cl | 8.5 | 4.5 | – | –
CC(C)C[C@H](CN)CC(=O)O [PREGABALIN] | 18.86 | 3.43 | – | –
COc1ccc(C(CN(C)C)C2(O)CCCCC2)cc1 (configuration not stated) [VENLAFAXINE] | 22 | 2 | – | –
CC12CC3CC(C)(C1)CC(N)(C3)C2.Cl [MEMANTINE HYDROCHLORIDE] | 10.4 | 2.8 | – | –
CCC(COC(=O)CC1(CN)CCCCC1)OC(=O)C[C@H](CN)CC(C)C.Cl.Cl (stereo in doubt; 2003325) | 6.8 | – | – | 4
Cl.Cl.NCC1(CC(=O)OCCOC(=O)CC2(CN)CCCCC2)CCCCC1 | 18.67 | 3.4 | – | –
CC(C)C[C@H](CNC(=O)CCC(=O)NC12CC3CC(C)(CC(C)(C3)C1)C2)CC(=O)O | 13.2 | 3.32 | – | –
CCC(COC(=O)CC1(CN)CCCCC1)OC(=O)C[C@H](CN)CC(C)C.Cl.Cl (stereo in doubt; 2003415) | – | – | – | 4.4
CC(C)C[C@@H](CN)CC(=O)OCCOC(=O)CC1(CN)CCCCC1.Cl.Cl | 19 | 3.33 | – | –
CC(C)C[C@@H](CN)CC(=O)OC(C)CCOC(=O)CC1(CN)CCCCC1.Cl.Cl (some centres not stated) | 11.4 | 4 | – | –
CC(C)C[C@@H](CN)CC(=O)OCCCCCOC(=O)CC1(CN)CCCCC1.Cl.Cl (stereo in doubt; 20030417) | – | – | 13.8 | 2.8
CC(C)C[C@@H](CN)CC(=O)OCCCCOC(=O)CC1(CN)CCCCC1.Cl.Cl | 8.56 | 4.17 | – | –
CC(C)C[C@@H](CN)CC(=O)OCC(C)(C)COC(=O)CC1(CN)CCCCC1.Cl.Cl | 7.2 | 4.4 | – | –
Cl.Cl.NCC1(CC(=O)OCCCOC(=O)CC2(CN)CCCCC2)CCCCC1 | 19.4 | 4.8 | – | –

Source: ChEMBL document CHEMBL1146733, “Effect of gabapentin derivates on mechanical allodynia-like behaviour in a rat model of chronic sciatic constriction injury” (2004)
